From BindingDB's records for doi:10.1074/jbc.M113.497990 (Vanderbilt University, 2013)

What was measured:
Cytochrome P450 2C9 = Cytochrome P450 2C9 (Homo sapiens, UniProt P11712); assay: CYP Activity Assay; conditions: 37 °C
Protocol: (§1) Inhibition of hepatic cytochromes P450 was assessed in human liver microsomes using a substrate-specific approach of monitoring metabolites formed by each specific CYP enzyme. Metabolic reactions included phenacetin-O-deethylation (1A2), tolbutamide methylhydroxylation (2C9), S-mephenytoin 4'-hydroxylation (2C19), dextrome-thorphan-[…] (2D6), and testosterone-6-β-hydroxylation (3A4). Each substrate was added at a concentration less than or equal to the Km for themetabolic pathway, and microsomal protein concentrations and assay incubation times were optimized for each reaction to ensure linear metabolite formation based on initial rates (Table 1). Microsomes were suspended in phosphate buffer and incubated at 37 °C in the presence of probe substrates. Reactions were initiated by the addition of an NADPH-regenerating buffer system and were quenched at the appropriate times using acetonitrile. Samples were centrifuged and concentrations of metabolites assessed by LC/MS.

Cytochrome P450 1A2 = biological target: T1, Cytochrome P450 1A2 (Homo sapiens, UniProt P05177); assay: CYP Activity Assay; conditions: 37 °C
T1 sequence (P05177 whole entry): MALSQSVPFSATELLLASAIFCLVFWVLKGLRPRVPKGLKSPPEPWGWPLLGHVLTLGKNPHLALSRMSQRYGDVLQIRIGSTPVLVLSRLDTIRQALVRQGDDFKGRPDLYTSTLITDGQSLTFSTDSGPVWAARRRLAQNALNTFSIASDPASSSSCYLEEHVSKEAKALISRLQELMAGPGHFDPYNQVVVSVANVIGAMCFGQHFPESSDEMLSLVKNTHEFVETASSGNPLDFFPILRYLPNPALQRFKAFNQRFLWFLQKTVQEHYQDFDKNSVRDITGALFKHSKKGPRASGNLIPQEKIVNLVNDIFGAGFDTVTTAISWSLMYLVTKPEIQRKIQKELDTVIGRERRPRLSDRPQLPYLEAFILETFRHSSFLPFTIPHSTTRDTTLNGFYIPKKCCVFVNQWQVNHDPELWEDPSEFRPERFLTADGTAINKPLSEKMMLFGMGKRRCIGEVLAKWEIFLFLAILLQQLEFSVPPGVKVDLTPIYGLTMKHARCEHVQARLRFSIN
Protocol: as §1

Cytochrome P450 2C19 = Cytochrome P450 2C19 (Homo sapiens, UniProt P33261); assay: CYP Activity Assay; conditions: 37 °C
Sequence of Cytochrome P450 2C19 (P33261 whole entry): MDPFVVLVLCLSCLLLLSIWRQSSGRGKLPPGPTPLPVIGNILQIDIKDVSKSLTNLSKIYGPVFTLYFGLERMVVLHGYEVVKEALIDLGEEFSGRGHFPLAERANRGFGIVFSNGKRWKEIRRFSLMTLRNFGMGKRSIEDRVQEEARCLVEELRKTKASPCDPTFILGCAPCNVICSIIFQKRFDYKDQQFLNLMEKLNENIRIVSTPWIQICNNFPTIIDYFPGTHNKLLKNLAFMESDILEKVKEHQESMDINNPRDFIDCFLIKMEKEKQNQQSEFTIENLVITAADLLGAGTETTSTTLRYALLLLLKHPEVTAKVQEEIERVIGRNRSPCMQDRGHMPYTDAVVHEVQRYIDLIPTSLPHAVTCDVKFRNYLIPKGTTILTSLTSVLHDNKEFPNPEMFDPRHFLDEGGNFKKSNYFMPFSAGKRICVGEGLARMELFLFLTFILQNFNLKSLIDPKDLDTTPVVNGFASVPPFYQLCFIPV
Protocol: as §1

Cytochrome P450 2D6 = Cytochrome P450 2D6 (Homo sapiens, UniProt P10635); assay: CYP Activity Assay; conditions: 37 °C
Sequence of Cytochrome P450 2D6 (P10635 whole entry): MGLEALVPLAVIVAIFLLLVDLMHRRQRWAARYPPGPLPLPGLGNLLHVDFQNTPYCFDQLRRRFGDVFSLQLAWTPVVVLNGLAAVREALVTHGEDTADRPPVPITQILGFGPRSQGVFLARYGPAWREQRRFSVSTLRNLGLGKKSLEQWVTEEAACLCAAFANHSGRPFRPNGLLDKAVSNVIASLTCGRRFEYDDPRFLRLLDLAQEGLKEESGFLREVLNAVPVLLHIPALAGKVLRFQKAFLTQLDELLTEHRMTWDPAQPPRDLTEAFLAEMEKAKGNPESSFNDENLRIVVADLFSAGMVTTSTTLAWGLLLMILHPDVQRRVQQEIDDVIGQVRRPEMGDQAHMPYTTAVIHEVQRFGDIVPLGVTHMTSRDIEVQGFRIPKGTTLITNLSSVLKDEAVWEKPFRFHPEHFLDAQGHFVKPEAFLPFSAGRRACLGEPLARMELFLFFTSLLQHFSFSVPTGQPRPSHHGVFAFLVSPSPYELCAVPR
Protocol: as §1

[1] = biological target: Putative lanosterol 14-alpha-demethylase (Leishmania infantum, UniProt A2TEF2); assay: CYP51 Inhibition Assay; conditions: pH 7.4; 37 °C
Sequence of Putative lanosterol 14-alpha-demethylase (A2TEF2 whole entry): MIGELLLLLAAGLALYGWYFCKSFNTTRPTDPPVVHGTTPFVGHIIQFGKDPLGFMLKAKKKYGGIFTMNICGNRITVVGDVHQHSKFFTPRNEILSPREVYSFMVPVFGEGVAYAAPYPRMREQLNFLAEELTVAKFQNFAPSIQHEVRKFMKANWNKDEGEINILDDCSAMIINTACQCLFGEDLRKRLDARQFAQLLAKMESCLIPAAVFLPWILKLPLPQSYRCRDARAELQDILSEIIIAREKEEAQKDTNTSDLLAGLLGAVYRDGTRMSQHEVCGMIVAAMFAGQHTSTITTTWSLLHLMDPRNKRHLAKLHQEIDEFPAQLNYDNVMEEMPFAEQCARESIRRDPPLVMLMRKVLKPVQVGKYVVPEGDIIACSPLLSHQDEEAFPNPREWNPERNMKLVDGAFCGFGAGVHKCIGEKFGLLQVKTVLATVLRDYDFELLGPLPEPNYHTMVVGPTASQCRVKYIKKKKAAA
Protocol: (§2) Briefly, the reaction mixture contained 1 uM CYP51, 2 uM cytochrome P450 reductase, 100 uM dilauroyl-alpha-phosphatidylcholine, 0.4 mg/ml isoctrate dehydrogenase, and 25mM sodium isocitrate in 20mM MOPS (pH 7.4), 50 mM KCl, 5 mM MgCl2, and 10% glycerol. After the addition of the 3H-radiolabeled sterol substrate (~2000 cpm/nmol, final concentration 50 uM) the mixture was preincubated for 5 min at 37 °C in a shaking water bath (GCA Precision Scientific). The reaction was initiated by the addition of 100 uM NADPH and stopped by extraction of the sterols with ethyl acetate. The reaction products were dried, dissolved in methanol, and analyzed by a reverse-phase HPLC system (Waters) equipped with a beta-RAM detector (INUS Systems, Inc.) using a Nova-Pak C18 column (particle size 4 uM, 3.9 x 150 mm) and a linear gradient consisting of water:acetonitrile:methanol (1.0:4.5:4.5) (solvent A) and methanol (solvent B) at a flow rate of 1 ml/min.

[2] = biological target: Sterol 14-alpha demethylase (Trypanosoma cruzi (strain CL Brener), UniProt Q7Z1V1); assay: CYP51 Inhibition Assay; conditions: pH 7.4; 37 °C
Sequence of Sterol 14-alpha demethylase (Q7Z1V1 whole entry): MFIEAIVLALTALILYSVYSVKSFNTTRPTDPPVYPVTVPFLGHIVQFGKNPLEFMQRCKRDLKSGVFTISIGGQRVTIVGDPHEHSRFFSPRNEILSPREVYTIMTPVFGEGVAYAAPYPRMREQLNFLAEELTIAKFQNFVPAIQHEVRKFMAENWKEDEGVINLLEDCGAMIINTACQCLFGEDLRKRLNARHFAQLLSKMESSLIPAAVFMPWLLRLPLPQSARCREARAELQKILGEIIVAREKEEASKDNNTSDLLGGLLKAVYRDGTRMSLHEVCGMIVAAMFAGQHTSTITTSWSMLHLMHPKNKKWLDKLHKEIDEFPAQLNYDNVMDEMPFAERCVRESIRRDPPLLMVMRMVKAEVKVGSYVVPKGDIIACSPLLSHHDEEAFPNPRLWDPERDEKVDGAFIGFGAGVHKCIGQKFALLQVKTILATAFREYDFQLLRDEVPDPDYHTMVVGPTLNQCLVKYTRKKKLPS
Protocol: as §2

[3] = biological target: T2, Lanosterol 14-alpha demethylase (Homo sapiens, UniProt Q16850); assay: CYP51 Inhibition Assay; conditions: pH 7.4; 37 °C
T2 sequence (Q16850 whole entry): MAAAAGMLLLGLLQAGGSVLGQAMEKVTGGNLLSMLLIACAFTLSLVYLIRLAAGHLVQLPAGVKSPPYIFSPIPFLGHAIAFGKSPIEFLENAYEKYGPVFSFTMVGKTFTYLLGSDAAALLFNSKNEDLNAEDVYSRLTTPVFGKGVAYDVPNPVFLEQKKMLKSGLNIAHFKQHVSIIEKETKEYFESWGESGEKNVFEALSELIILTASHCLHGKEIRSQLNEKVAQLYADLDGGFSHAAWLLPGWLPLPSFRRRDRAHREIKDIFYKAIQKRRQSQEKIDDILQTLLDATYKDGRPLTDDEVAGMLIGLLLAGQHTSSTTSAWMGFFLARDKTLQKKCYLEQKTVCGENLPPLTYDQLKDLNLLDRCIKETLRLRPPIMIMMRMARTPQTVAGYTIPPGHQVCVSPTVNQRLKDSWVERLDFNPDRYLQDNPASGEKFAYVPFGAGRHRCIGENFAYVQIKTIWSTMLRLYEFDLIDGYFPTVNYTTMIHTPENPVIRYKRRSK
Protocol: as §2

Cytochrome P450 3A4 = Cytochrome P450 3A4 (Homo sapiens, UniProt P08684); assay: CYP Activity Assay; conditions: 37 °C
Sequence of Cytochrome P450 3A4 (P08684 whole entry): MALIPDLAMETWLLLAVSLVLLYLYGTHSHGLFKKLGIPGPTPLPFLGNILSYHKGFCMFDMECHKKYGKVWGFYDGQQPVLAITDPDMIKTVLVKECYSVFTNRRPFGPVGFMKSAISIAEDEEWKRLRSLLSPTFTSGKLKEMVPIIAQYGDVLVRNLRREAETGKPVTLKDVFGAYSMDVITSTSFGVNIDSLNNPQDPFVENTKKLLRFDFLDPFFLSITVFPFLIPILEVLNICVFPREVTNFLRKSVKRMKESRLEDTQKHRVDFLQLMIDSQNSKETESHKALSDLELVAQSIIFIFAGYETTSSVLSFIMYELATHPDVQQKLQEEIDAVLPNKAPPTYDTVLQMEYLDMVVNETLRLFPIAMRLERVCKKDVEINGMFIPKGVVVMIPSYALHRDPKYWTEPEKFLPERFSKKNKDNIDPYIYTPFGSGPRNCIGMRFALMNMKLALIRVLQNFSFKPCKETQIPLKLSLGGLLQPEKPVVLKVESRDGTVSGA
Protocol: as §1

Sequence of Cytochrome P450 2C9 (P11712 whole entry): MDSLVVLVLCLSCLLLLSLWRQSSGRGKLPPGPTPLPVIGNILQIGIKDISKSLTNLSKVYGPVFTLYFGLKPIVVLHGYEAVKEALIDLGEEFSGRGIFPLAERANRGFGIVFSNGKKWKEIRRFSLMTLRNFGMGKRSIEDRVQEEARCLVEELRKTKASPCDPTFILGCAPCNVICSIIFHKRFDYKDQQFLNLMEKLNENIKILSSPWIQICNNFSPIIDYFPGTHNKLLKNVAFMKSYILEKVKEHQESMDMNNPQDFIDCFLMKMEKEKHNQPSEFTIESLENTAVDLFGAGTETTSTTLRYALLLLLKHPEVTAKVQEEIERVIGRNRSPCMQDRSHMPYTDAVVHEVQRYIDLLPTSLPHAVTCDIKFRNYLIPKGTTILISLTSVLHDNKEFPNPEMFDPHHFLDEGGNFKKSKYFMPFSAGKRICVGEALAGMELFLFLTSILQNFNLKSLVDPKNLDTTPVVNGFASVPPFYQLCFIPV

FC(F)(F)c1ccc(N(c2cccnc2)C2CCN(c3ccc(C(F)(F)F)cn3)CC2)cc1 [EPL-BS0967 (UDD)]
IC50 (Cytochrome P450 2C9): 8100 nM
IC50 (Cytochrome P450 1A2): > 20000 nM
IC50 (Cytochrome P450 2C19): 9800 nM
IC50 (Cytochrome P450 2D6): 20000 nM
Kd [1]: 419 nM
Kd [2]: 32 nM
Kd [3]: 26 nM

O=C([C@@H](c1ccc(Cl)cc1)c1cccnc1)N1CCN(c2ccc(C(F)(F)F)cc2)CC1 [EPL-BS1246 (UDO)]
IC50 (Cytochrome P450 2C9): 9000 nM
IC50 (Cytochrome P450 1A2): > 20000 nM
IC50 (Cytochrome P450 3A4): 20000 nM
IC50 (Cytochrome P450 2C19): 12000 nM
IC50 (Cytochrome P450 2D6): 4000 nM
Kd [1]: 156 nM
Kd [2]: 19 nM
Kd [3]: 69 nM

CC[C@@H]([C@H](C)O)n1ncn(-c2ccc(N3CCN(c4ccc(OCC5CO[C@@](Cn6cncn6)(c6ccc(F)cc6F)C5)cc4)CC3)cc2)c1=O (some centres not stated) [Posaconazole]
Kd [1]: 18 nM

O=C(N[C@@H](Cn1ccnc1)c1ccc(Cl)cc1Cl)c1ccc(-c2nnc(-c3ccccc3)o2)cc1 [VNI]
Kd [2]: 15 nM
